Test results reported in patent US20240400515A1, “NPM1-DEPENDING LEUKEMIA AGENTS” (UNIVERSIDAD COMPLUTENSE DE MADRID, priority 2021, published 2024).

Assays:
MOLM13 (NPM1 C−) = experiment: Viability assay (WST-1) in MOLM13 cell line; type: cell-based; conditions: Homo sapiens, MOLM-13, viability percentage relative to vehicle, 24 h
Experimental: (§1) Two different acute myeloid leukemia cell lines, OCI-AML3 (NPM1 C+) and MOLM13 (NPM1 C−) were obtained from the DSMZ cell repository (Braunschweig, Germany). Cell lines were expanded and cryogenically frozen upon acquisition to establish stocks in liquid nitrogen until use. Cultured cells were maintained at 37° C. in a humidified incubator in an atmosphere of 5% CO2 and passaged every 2-3 days. RPMI media (Gibco/Life Technologies; Grand Island, NY) supplemented with 10% fetal bovine serum (FBS) (Hyclone) and 1% penicillin/streptomycin was used.
(§2) The sensitivity of the compounds on OCI-AML3 (NPM1 C+) and MOLM13 (NPM1 C−) cell viability was assessed as an in-vitro acute myeloid leukemia (AML) model. Briefly, cells were seeded at a density of 2×10^4 cells/100 μL/well in 96-well plates. Cell lines were treated for 24 h with the test compound diluted in DMSO at the concentration of 5 μM or vehicle (DMSO). Then, 10 μL of WST-1 solution ((2-(4-iodophenyl)-3-(4-nitrophenyl)-5-(2,4-disulfophenyl)-2H-tetrazolium monosodium salt, Merck) were added and the cells were incubated for 4 h at 37° C. The absorbance was measured at 450 nm using an Asys UVM 340 microplate reader (Biochrom Ltd., Cambridge, UK). The background absorbance of blank wells containing only medium was subtracted from each test well. The data were reported as viability percentage relative to vehicle, obtained from two or three independent experiments performed in triplicate (Table 1).

OCI-AML3 (NPM1 C+) = experiment: Viability assay (WST-1) in OCI-AML3 cell line; type: cell-based; conditions: Homo sapiens, OCI-AML-3, viability percentage relative to vehicle, 24 h
Experimental: as §1, §2

| SMILES | viability at 5 µM (MOLM13 (NPM1 C−)) [%] | viability at 5 µM (OCI-AML3 (NPM1 C+)) [%] |
| --- | --- | --- |
| Cc1ccc([C@H]2Cc3[nH]c4ccccc4c3[C@@H](CCNC3CC3)[C@@H]2N)cc1 [Iaa, (2R,3R,4R)-4-[2-(Cyclopropylamino)ethyl]-2-(4-methylphenyl)-2,3,4,9-tetrahydro-1H-carbazol-3-amine] | 2 ± 2 | 1 ± 1 |
| Cc1ccc([C@H]2Cc3[nH]c4ccc(Cl)cc4c3[C@@H](CCNCC3CC(F)(F)C3)[C@@H]2N)cc1 [Iab, (2R,3R,4R)-6-Chloro-4-(2-{[(3,3-difluorocyclobutyl)methyl]amino}ethyl)-2-(4-methylphenyl)-2,3,4,9-tetrahydro-1H-carbazol-3-amine] | 14 ± 8 | 17 ± 4 |
| CN[C@@H]1[C@@H](c2ccc(C)cc2)Cc2[nH]c3ccc(Cl)cc3c2[C@H]1CCNCC1CC(F)(F)C1 [Iac, (2R,3R,4R)-6-Chloro-4-(2-{[(3,3-difluorocyclobutyl)methyl]amino}ethyl)-N-methyl-2-(4-methylphenyl)-2,3,4,9-tetrahydro-1H-carbazol-3-amine] | 5 ± 1 | 6 |
| COc1ccc2[nH]c3c(c2c1)[C@@H](CCNCC1CC1)[C@H](N)[C@@H](c1ccc(C)cc1)C3 [Iaf, (2R,3R,4R)-4-{2-[(Cyclopropylmethyl)amino]ethyl}-6-methoxy-2-(4-methylphenyl)-2,3,4,9-tetrahydro-1H-carbazol-3-amine] | 60 ± 2 | 39 ± 6 |
| Cc1ccc([C@H]2Cc3[nH]c4ccc(Cl)cc4c3[C@@H](CCNCC3CC3)[C@@H]2N)cc1 [Iag, (2R,3R,4R)-6-Chloro-4-{2-[(cyclopropylmethyl)amino]ethyl}-2-(4-methylphenyl)-2,3,4,9-tetrahydro-1H-carbazol-3-amine] | 10 ± 6 | 9 ± 5 |
| COc1ccc([C@H]2Cc3[nH]c4ccc(Cl)cc4c3[C@@H](CCNCC3CC3)[C@@H]2N)cc1 [Iah, (2R,3R,4R)-6-Chloro-4-{2-[(cyclopropylmethyl)amino]ethyl}-2-(4-methoxyphenyl)-2,3,4,9-tetrahydro-1H-carbazol-3-amine] | 16 ± 2 | 26 ± 12 |
| Cc1ccc([C@H]2Cc3[nH]c4ccc(C)cc4c3[C@@H](CCNCC3CC3)[C@@H]2N)cc1 [Iai, (2R,3R,4R)-4-{2-[(Cyclopropylmethyl)amino]ethyl}-6-methyl-2-(4-methylphenyl)-2,3,4,9-tetrahydro-1H-carbazol-3-amine] | 6 ± 2 | 12 ± 2 |
| Cc1ccc([C@H]2Cc3[nH]c4ccc(F)cc4c3[C@@H](CCNCC3CC3)[C@@H]2N)cc1 [Iaj, (2R,3R,4R)-4-{2-[(Cyclopropylmethyl)amino]ethyl}-6-fluoro-2-(4-methylphenyl)-2,3,4,9-tetrahydro-1H-carbazol-3-amine] | 4 ± 1 | 7 ± 1 |
| CN[C@@H]1[C@@H](c2ccc(C)cc2)Cc2[nH]c3ccc(Cl)cc3c2[C@H]1CCNCC1CC1 [Iak, (2R,3R,4R)-6-Chloro-4-{2-[(cyclopropylmethyl)amino]ethyl}-N-methyl-2-(4-methylphenyl)-2,3,4,9-tetrahydro-1H-carbazol-3-amine] | 7 ± 2 | 1 ± 1 |
| Cc1ccc([C@H]2Cc3c(c4ccccc4n3C)[C@@H](CCNCC3CC3)[C@@H]2N)cc1 [Ial, (2R,3R,4R)-4-{2-[(Cyclopropylmethyl)amino]ethyl}-9-methyl-2-(4-methylphenyl)-2,3,4,9-tetrahydro-1H-carbazol-3-amine] | 17 | 22 ± 2 |
| Cc1ccc([C@H]2Cc3[nH]c4ccccc4c3[C@@H](CCNCC3CC3)[C@@H]2N)cc1 [Ib, (2R,3R,4R)-4-{2-[(Cyclopropylmethyl)amino]ethyl}-2-(4-methylphenyl)-2,3,4,9-tetrahydro-1H-carbazol-3-amine] | 20 ± 5 | 16 |
| COc1ccc([C@@H]2Cc3[nH]c4ccccc4c3[C@H](CCNCC3CC3)[C@H]2N)cc1 [Id, (2S,3S,4S)-4-{2-[(Cyclopropylmethyl)amino]ethyl}-2-(4-methoxyphenyl)-2,3,4,9-tetrahydro-1H-carbazol-3-amine] | 40 | 33 ± 5 |
| N[C@@H]1[C@@H](c2ccc(C(F)(F)F)cc2)Cc2[nH]c3ccccc3c2[C@H]1CCNCC1CC1 [Ie, (2R,3R,4R)-4-{2-[(Cyclopropylmethyl)amino]ethyl}-2-[4-(trifluoromethyl)phenyl]-2,3,4,9-tetrahydro-1H-carbazol-3-amine] | 13 ± 3 | 14 ± 5 |
| N[C@@H]1[C@@H](c2ccc(OC(F)(F)F)cc2)Cc2[nH]c3ccccc3c2[C@H]1CCNCC1CC1 [If, (2R,3R,4R)-4-{2-[(Cyclopropylmethyl)amino]ethyl}-2-[4-(trifluoromethoxy)phenyl]-2,3,4,9-tetrahydro-1H-carbazol-3-amine] | 12 ± 3 | 11 ± 4 |
| N[C@@H]1[C@@H](c2cccc(Cl)c2)Cc2[nH]c3ccccc3c2[C@H]1CCNCC1CC1 [Ih, (2R,3R,4R)-2-(3-Chlorophenyl)-4-{2-[(cyclopropylmethyl)amino]ethyl}-2,3,4,9-tetrahydro-1H-carbazol-3-amine] | 28 ± 10 | 25 ± 7 |
| N[C@@H]1[C@@H](c2ccc(Cl)cc2)Cc2[nH]c3ccccc3c2[C@H]1CCNCC1CC1 [Ii, (2R,3R,4R)-2-(4-Chlorophenyl)-4-{2-[(cyclopropylmethyl)amino]ethyl}-2,3,4,9-tetrahydro-1H-carbazol-3-amine] | 13 ± 1 | 13 ± 4 |
| COc1ccccc1[C@H]1Cc2[nH]c3ccccc3c2[C@@H](CCNCC2CC2)[C@@H]1N [Ik, (2R,3S,4R)-4-{2-[(Cyclopropylmethyl)amino]ethyl}-2-(2-methoxyphenyl)-2,3,4,9-tetrahydro-1H-carbazol-3-amine] | 30 ± 2 | 23 ± 3 |
| Cc1cccc([C@H]2Cc3[nH]c4ccccc4c3[C@@H](CCNCC3CC3)[C@@H]2N)c1 [Il, (2R,3R,4R)-4-{2-[(Cyclopropylmethyl)amino]ethyl}-2-(3-methylphenyl)-2,3,4,9-tetrahydro-1H-carbazol-3-amine] | 32 ± 4 | 19 ± 7 |
| Cc1ccccc1[C@H]1Cc2[nH]c3ccccc3c2[C@@H](CCNCC2CC2)[C@@H]1N [Im, (2R,3R,4R)-4-{2-[(Cyclopropylmethyl)amino]ethyl}-2-(2-methylphenyl)-2,3,4,9-tetrahydro-1H-carbazol-3-amine] | 61 ± 7 | 36 ± 8 |
| N[C@@H]1[C@@H](c2ccccc2Cl)Cc2[nH]c3ccccc3c2[C@H]1CCNCC1CC1 [In, (2R,3S,4R)-2-(2-Chlorophenyl)-4-{2-[(cyclopropylmethyl)amino]ethyl}-2,3,4,9-tetrahydro-1H-carbazol-3-amine] | 28 ± 4 | 29 ± 1 |
| N[C@@H]1[C@@H](c2ccc(F)cc2)Cc2[nH]c3ccccc3c2[C@H]1CCNCC1CC1 [Io, (2R,3R,4R)-4-{2-[(Cyclopropylmethyl)amino]ethyl}-2-(4-fluorophenyl)-2,3,4,9-tetrahydro-1H-carbazol-3-amine] | 13 ± 5 | 16 ± 1 |
| N[C@H]1[C@H](c2ccc(F)cc2)Cc2[nH]c3ccccc3c2[C@@H]1CCNCC1CC1 [Ip, (2S,3S,4S)-4-{2-[(Cyclopropylmethyl)amino]ethyl}-2-(4-fluorophenyl)-2,3,4,9-tetrahydro-1H-carbazol-3-amine] | 7 ± 2 | 7 ± 3 |
| N[C@@H]1[C@@H](c2cccc(F)c2)Cc2[nH]c3ccccc3c2[C@H]1CCNCC1CC1 [Iq, (2R,3R,4R)-4-{2-[(Cyclopropylmethyl)amino]ethyl}-2-(3-fluorophenyl)-2,3,4,9-tetrahydro-1H-carbazol-3-amine] | 34 ± 4 | 18 ± 6 |
| CN[C@@H]1[C@@H](c2ccc(OC)cc2)Cc2[nH]c3ccccc3c2[C@H]1CCNCC1CC1 [Ir, (2R,3R,4R)-4-{2-[(Cyclopropylmethyl)amino]ethyl}-2-(4-methoxyphenyl)-N-methyl-2,3,4,9-tetrahydro-1H-carbazol-3-amine] | 15 | 11 ± 3 |
| CN[C@H]1[C@H](c2ccc(OC)cc2)Cc2[nH]c3ccccc3c2[C@@H]1CCNCC1CC1 [Is, (2S,3S,4S)-4-{2-[(Cyclopropylmethyl)amino]ethyl}-2-(4-methoxyphenyl)-N-methyl-2,3,4,9-tetrahydro-1H-carbazol-3-amine] | 6 ± 1 | 1 |
| Cc1ccc([C@H]2Cc3[nH]c4ccccc4c3[C@@H](CCNCC3CC(F)(F)C3)[C@@H]2N)cc1 [Iu, (2R,3R,4R)-4-(2-{[(3,3-Difluorocyclobutyl)methyl]amino}ethyl)-2-(4-methylphenyl)-2,3,4,9-tetrahydro-1H-carbazol-3-amine] | 6 ± 1 | 4 ± 3 |
| CNCC[C@@H]1c2c([nH]c3ccccc23)C[C@H](c2ccc(OC)cc2)[C@H]1N [Iw, (2R,3R,4R)-2-(4-Methoxyphenyl)-4-[2-(methylamino)ethyl]-2,3,4,9-tetrahydro-1H-carbazol-3-amine] | 40 ± 15 | 27 ± 2 |
